Values quoted from earlier work as cited in patent publication US6447820B1, “Pharmaceutical composition for the prevention and treatment of scar tissue” (priority 2001, dated 2002).

How the values were obtained:
[1] = mice
[2] = mice; remark: listed apart in the source
[3] = X-ray irradiated recipient mice
[4] = mice; remark: listed apart in the source
[5] = guinea pigs
[6] = mice; remark: listed apart in the source

CC1(C)O[C@H]2CC(=O)OC[C@]23[C@H]2CC[C@@]4(C)[C@H](c5ccoc5)OC(=O)[C@H]5O[C@]54[C@]2(C)C(=O)C[C@@H]13 [limonin]
sleeping time induced by alpha-chloralose-urethane [1]: shorten

COc1ccc2c(c1O)-c1c(O)c(OC)cc3c1[C@H](C2)[N+](C)(C)CC3 [magnoflorine]
local GvH reactions [2]: suppress

CC1(C)OC(=O)C=C[C@]2(C)[C@H]3CC[C@@]4(C)[C@H](c5ccoc5)OC(=O)[C@H]5O[C@]54[C@]3(C)C(=O)C[C@@H]12 [obacunone]
sleeping time induced by alpha-chloralose-urethane [1]: shorten

COc1cc2c(cc1O)C[C@H]1c3cc(O)c(OC)cc3CC[N@@+]1(C)C2 [phellodendrine]
systemic allogeneic GvH reactions [3]: suppressed
effector phase of SRBC-induced delayed type hypersensitivity [4]: did not suppress
induction phase of SRBC-induced delayed type hypersensitivity [4]: suppressed
effector phase of tuberculin-induced delayed type hypersensitivity [5]: did not suppress
induction phase of tuberculin-induced delayed type hypersensitivity [5]: suppressed
local GvH reactions [2]: suppress
local semisyngeneic GvH reactions [2]: suppressed
antibody production to SRBC [6]: did not affect
